Test results from PubChem BioAssay AID179 (DTP/NCI, 2004).
Several values for one entry are separate records, joined by “and”; a condition that tells them apart may be missing. Identical values can stand only once. Activity calls are given as the source filed them.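 Rule for the calls: active = compounds giving half or more protection of infected cells from virus-caused growth loss, again on retest; inactive = the rest.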 Where a SMILES comes first, the peptide text is derived from it.

System: CEM cells HIV-1 protection, formazan growth assay
Assay: NCI AIDS Antiviral Assay
Conditions: for IC50: measured here: growth of uninfected CEM cells
Procedure, shortened: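 Protection of CEM cells against HIV-1 measured as cell growth via soluble formazan read-out, with five concentrations tested on both infected and uninfected cells; failure to protect may reflect toxicity.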

| SMILES | EC50 [µM] | IC50 | outcome |
| --- | --- | --- | --- |
| COc1ccc(C2C(Cl)C(=O)N2NC(=O)c2ccc(NC(C)=O)cc2)cc1 (stereo unspecified) | > 200 | > 200 µM |  |
| CC1=C(C(N)=O)C(c2ccncc2)C(C#N)=C2SCC(=O)N12 (stereo unspecified) | > 200 | > 200 µM |  |
| C=C(COC(=O)CC(C)(C)CC(=O)O)[C@@H]1CC[C@]2(COC(=O)CC(C)(C)CC(=O)O)CC[C@]3(C)[C@H](CC[C@@H]4[C@@]5(C)CC[C@H](OC(=O)CC(C)(C)CC(=O)O)C(C)(C)[C@@H]5CC[C@]43C)[C@@H]12 | > 200 | 24.5 µM |  |
| O=C1C2CC3OC3CC2C(=O)N1CCCCCCN1C(=O)C2CC3OC3CC2C1=O (stereo unspecified) | > 200 | > 200 µM |  |
| Nc1nc(Br)nc2ncn(C3CC(O)C(CO)O3)c12 (stereo unspecified) | > 200 | 7.41 µM |  |
| CC(CCN1CCN(CCC(C)CC(C)(C)C)S1(=O)=O)CC(C)(C)C (stereo unspecified) |  |  | inactive |
| CN(C(=O)c1ccco1)C(=S)N1CCN(c2ccccn2)CC1 | > 398 | 209 µM |  |
| CC1C/C(=C\c2ccc(OC(=O)C(C)(C)C)cc2)C(=O)/C(=C/c2ccc(OC(=O)C(C)(C)C)cc2)C1 (stereo unspecified) | > 50.1 | 22.4 µM |  |
| CCOC(CCCN1CCC2(CC1)C(=O)N(C)CN2c1ccccc1)(OCC)c1ccc(F)cc1 | > 200 | 15.1 µM |  |
| OC1Cn2cc(Br)c[n+]2C1 (stereo unspecified) | > 200 | > 200 µM |  |
| Cc1cc2c(C(C)C)c(O)c(O)c(/C=N\O)c2c(O)c1-c1c(C)cc2c(C(C)C)c(O)c(O)c(/C=N/O)c2c1O | > 200 | 10 µM |  |
| CC1CCCN2C(=O)CN(N3CCOCC3)CC(=O)N12 (stereo unspecified) | > 200 | > 200 µM |  |
| CCOC(=O)Cc1csc(NC(NC(=O)OCC)(C(=O)OCC)C(F)(F)F)n1 (stereo unspecified) | > 200 | > 200 µM |  |
| CC(C)OC1CC(C)(C)c2c(-c3ccccc3)nn(-c3ccccc3)c2O1 (stereo unspecified) | > 61.7 | 38 µM |  |
| CC(=O)Nc1ccc(S(=O)(=O)N/N=C/c2ccco2)cc1 | > 589 | 309 µM |  |
| CC(=O)OC1C=CC(OC(C)=O)C2C1[C@H]1C3C=CC=CC3[C@@H]2S1=O (stereo partly specified) | > 200 | 112 µM |  |
| Cc1cc2c(cc1C)C(=O)/C(=C/c1ccccc1C(=O)O)C2 | > 145 | 45.7 µM |  |
| O=C(c1ccccc1)N1CCC(Nc2nccs2)O1 (stereo unspecified) | > 200 | > 200 µM |  |
| CCC(C)C(=O)O[C@H]1[C@H](OC(C)=O)[C@H](OC(C)=O)[C@@]2(COC(C)=O)C(OC(C)=O)C(=O)[C@@H]3[C@@H](OC(C)=O)[C@]2(O[C@@]3(C)COC(=O)c2ccccc2)[C@@]1(C)O (stereo partly specified) |  |  | inactive |
| O=c1cc(CNC2CCCC2)[nH]c(=O)[nH]1 |  |  | inactive |
| CC1(C)O[C@@H](C[C@]2(C#N)C[C@H](CCl)OC(C)(C)O2)C[C@@H](C#N)O1 |  | > 200 µM | inactive |
| N#CCCCCC12C3C(=O)N(c4ccccc4)C(=O)C3ON1O[C@@H]1C(=O)N(c3ccccc3)C(=O)[C@@H]12 (stereo partly specified) | > 200 | > 200 µM |  |

| SMILES | EC50 [µM] | IC50 | outcome |
| --- | --- | --- | --- |
| O=C(OCc1ccccc1)c1ccc(NCc2cc(O)ccc2O)cc1 |  |  | inactive |
| O=C1CC(=O)NC(=NNS(=O)(=O)c2ccc(Cl)cc2)N1 | > 200 | > 200 µM |  |
| COP1(=O)NCc2ncccc2O1 (stereo unspecified) | > 200 | > 200 µM |  |
| CC(=O)OC1CCn2nnc(CO)c21 (stereo unspecified) |  |  | inactive |
| NC1(C(=O)N2CCCC2C(=O)O)CCCC1 (stereo unspecified) (HELM PEPTIDE1{[NC1(C(=O)[*:2])CCCC1].[O=C(O)C1CCCN1[*:1]]}$$$$V2.0) | > 200 | > 200 µM |  |
| CCOC(=O)c1[nH]n(-c2ccccc2)c(=O)c1C=NC(=S)c1cccnc1 | > 200 | 89.1 µM |  |
| CCCCC(c1nc2c(c3c1CCCC3)CCCC2)C(O)(C(F)(F)F)C(F)(F)F (stereo unspecified) | > 200 | 38.9 µM |  |
| CN(C)NC(=S)NC12CC3CC(CC(C3)C1)C2 |  |  | inactive |
| CCOC(=O)c1c2c(nc3c1CCC/C3=C\c1ccccc1)/C(=C/c1ccccc1)CCC2 | > 200 | > 200 µM |  |
| C=C1[C@H]2CCC3(CC[C@H]4C5(CCC[C@@]4(C)C(=O)N(CCO)C5)[C@@H]3C2)[C@@H]1O |  |  | inactive |
| CCOC(=O)C1(C(=O)OCC)COC(C)(C)OC1 | > 200 | > 200 µM |  |
| C[C@]12CCC[C@H](O)[C@H]1C[C@H](CO)CC2 |  |  | inactive |
| CCOC(=O)C(NCc1ccccc1)(NC(=O)c1ccccc1)C(F)(F)F (stereo unspecified) |  |  | inactive |
| Nc1cccc(OCC2CCCN3CCCCC23)c1 (stereo unspecified) | > 200 | 13.8 µM |  |
| C/C=C/C(C#N)O[Si](C)(C)C (stereo unspecified) |  |  | inactive |
| NC(=S)N/N=C/c1cn(CCCl)c2ccccc12 | > 25.7 | 15.8 µM |  |
| O=c1nc2sc3ccc4ccccc4c3n2nc1-c1ccccc1 | > 49 | > 49 µM |  |
| Cc1cc(=O)c2ccc3c(ccc4c(=O)cc(C)[nH]c43)c2[nH]1 | > 200 | 11.5 µM |  |
| CC1CC(C)CN(Cc2cccnc2)C1 (stereo unspecified) |  |  | inactive |
| N#CC1(c2nc3ccccc3o2)C(=O)C(=O)N(c2ccc(Cl)c(Cl)c2)C(=O)C1=O | > 302 | 282 µM |  |
| CCOC(=O)c1c(-c2ccc(O)c(OC)c2)c(C#N)c(=S)n(C2OC(COC(C)=O)C(OC(C)=O)C(OC(C)=O)C2OC(C)=O)c1-c1ccccc1 (stereo unspecified) | > 200 | 91.2 µM and 64.6 µM |  |
| CCCCOP(C)(=O)C(NC(=O)OCC)(C(F)(F)F)C(F)(F)F (stereo unspecified) | > 200 | > 200 µM |  |

| SMILES | EC50 [µM] | IC50 | outcome |
| --- | --- | --- | --- |
| N#Cc1c(N)c(C(=O)Nc2ccccc2)n2c1CCCC2 | > 200 | > 200 µM |  |
| CN(C)CCCN1C(=O)C2CCC(C)(C1=O)C2(C)C (stereo unspecified) | > 832 | 12.9 µM |  |
| O=C(NCCCCNCCCNC(=O)OCc1ccccc1)OCc1ccccc1 | > 200 | 33.1 µM |  |
| CN(C)c1ccc(-c2c(C#N)c(-c3ccccc3)n(NS(=O)(=O)c3ccccc3)c(=O)c2C#N)cc1 | > 200 | 13.2 µM |  |
| COC12C(COC(N)=O)C3=C(C(=O)C(C)=C(N)C3=O)N1CC1C2N1C (stereo unspecified) | > 724 | 0.417 µM |  |
| CC(C)(C)C1CCC2(N3CCOCC3)C(C#N)CC2C1 (stereo unspecified) | > 794 | 89.1 µM and > 794 µM |  |
| NNC(=S)N/N=C(\CC1OC(=O)c2ccccc21)c1ccccc1O (stereo unspecified) | > 363 | 209 µM |  |
| CC(C)(C)OC(=O)c1ccc(NCC2=CC(=O)C=CC2=O)cc1 | > 200 | 10.2 µM |  |
| NC(=O)C#CC#CC#CCO | > 891 | 0.479 µM |  |
| COC(CNC(=O)C(C)NC(=O)C(C)NC(=O)c1ccccc1)OC (stereo unspecified) |  |  | inactive |
| COc1cccc(C=C(C#N)C#N)c1OC | > 200 | > 100 µM |  |
| CSc1nc2[nH]c(=O)c(C)nc2c(=O)[nH]1 | > 23.4 | > 23.4 µM |  |
| NCCN.NCCN.O=C([O-])C(=O)[O-].[Cl-].[Co+3] |  |  | inactive |
| CCCCCCCCCCCC(=O)OCC1OC(n2cc(F)c(=O)[nH]c2=O)C(N)C(O)C1O (stereo unspecified) | > 55 | > 55 µM |  |
| COC(=O)c1ccccc1OCc1cc(=O)oc2ccc(C)cc12 |  |  | inactive |
| CCC(=O)C(C)C(=O)C(=O)C(=O)OC (stereo unspecified) | > 13.5 | > 13.5 µM |  |
| Nc1ncnc2c1ncn2CC1COC(CO)O1 (stereo unspecified) | > 1000 | > 1000 µM |  |
| CC(C)/C=C/C1=C(O)c2ccccc2C(=O)C1=O |  |  | inactive |
| CNc1nc(N(C)C)nc(N(C)C)n1 | > 537 | 407 µM |  |
| Cc1cc(C)c2c(c1)NP(=S)(c1ccccc1)N2 (stereo unspecified) | > 200 | > 200 µM |  |
| N=C(N)SCCC(=O)CCSC(=N)N | > 85.1 | 63.1 µM |  |
| FC(F)(F)c1nc2cc(SSc3cc4nc(C(F)(F)F)[nH]c4cc3Cl)c(Cl)cc2[nH]1 | > 200 | 7.41 µM |  |

| SMILES | EC50 [µM] | IC50 | outcome |
| --- | --- | --- | --- |
| CCCCCCCCOCCS(=O)(=O)O | > 200 | > 200 µM |  |
| NC(=O)c1cc([N+](=O)[O-])cc([N+](=O)[O-])c1 | > 200 | 40.7 µM |  |
| Nc1snc2ncccc12 | > 1200 | 66.1 µM |  |
| C[C@]12C[C@@H](c3ccccc3)Nc3ccccc3N1C(c1ccccc1)=NO2 | > 200 | 30.9 µM |  |
| NS(=O)(=O)c1nnc(NC(=O)c2cccc([N+](=O)[O-])c2)s1 | > 200 | > 200 µM |  |
| CN1C2CCC1CC(OC(=O)C1CCC(C(=O)OC3CC4CCC(C3)N4C)(c3ccccc3)c3ccccc31)C2 (stereo unspecified) | > 200 | 6.46 µM |  |
| c1cc2ccc1C1NCCCN1CCN1CCCNC1c1ccc(cc1)C1NCCCN1CCN1CCCNC21 (stereo unspecified) | > 13.2 | 9.33 µM |  |
| COc1cccc(C2SCc3nc4ccccc4n32)c1 (stereo unspecified) |  |  | inactive |
| COC1C=CC23c4cc5c(cc4COC2(O)CN(C)C3C1)OCO5 (stereo unspecified) | > 550 | > 550 µM |  |
| CCOC(=O)C1=C(O)C2C3CC4C2C(O)=C(C(=O)OCC)C2C1C3C42 (stereo unspecified) | > 200 | 93.3 µM |  |
| Oc1cccc2cc(Br)cnc12 | > 20 | 5.01 µM |  |
| Clc1cccc(C2SCc3nc4ccccc4n32)c1 (stereo unspecified) |  |  | inactive |
| N#Cc1c(O)cc(=O)n2c1[nH]c1ccccc12 | > 200 | 174 µM |  |
| CC(=O)O[C@]1(C)OC(=O)[C@@H](C)N1[N+](=O)[O-] |  |  | inactive |
| NC1=NN(c2ccccc2)C2(O)c3ccncc3C3=NN(c4ccccc4)C(=O)C132 (stereo unspecified) | > 200 | > 200 µM |  |
| O=C1OC(C(O)CO)C(O)=C1Nc1ccc(S(=O)(=O)c2ncc(NC3=C(O)C(C(O)CO)OC3=O)s2)cc1 (stereo unspecified) | > 200 | 21.9 µM |  |
| CCCc1cc(=O)oc2c3c(c4c(c12)OC(C)(C)C=C4)O[C@H](C)[C@@H](C)[C@@H]3OC(=O)CCl | 4.57 | 15.8 µM |  |
| COc1c(Cl)cc(C(=CCCCCN[C@H]2CC[C@@]3(C)[C@@H](CC[C@@H]4[C@@H]3CC[C@]3(C)[C@@H](C(C)CCCC(C)C)CC[C@@H]43)C2)c2cc(Cl)c(OC)c(C(=O)O)c2)cc1C(=O)O (stereo partly specified) | > 200 | > 200 µM |  |
| CCCCNC(=S)Nc1nc(C(=O)NNC(=S)NCc2ccccc2)cs1 | > 126 | 26.3 µM |  |
| Cc1ccc(NC(=O)/C(CC(=O)c2sc(Nc3ccc(Cl)c(Cl)c3)nc2C)=N\Nc2ccc([N+](=O)[O-])cc2[N+](=O)[O-])c(C)c1 | > 200 | 25.1 µM |  |
| Cc1oc2c(c(C)nn2-c2ccccc2)c(=O)c1Cl | > 200 | 174 µM |  |
